Source: patent US20240041042A1, “1-(PYRIDYL)-5-AZINYLPYRAZOLE DERIVATIVES, AND THEIR USE FOR CONTROL OF UNDESIRED PLANT GROWTH” (Bayer Aktiengesellschaft, priority 2020, published 2024)
Where two headings read alike, the source gives them in different places.

What was measured:
Format in all cases: in vivo
[1] = tested on: Matricaria inodora (MATIN); assay: Pre-emergence herbicidal action against MATIN; conditions: dosage 320 g/ha
How it was run: (§1)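 Seeds sown in pots and covered with soil; WP or EC formulations sprayed onto the soil surface at 600 l/ha water with 0.5% additive, at 320 g/ha or lower. Greenhouse growth for about 3 weeks, then visual scoring as % effect against untreated controls (100% = plants dead).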

[2] = tested on: Polygonum convolvulus (POLCO); assay: Pre-emergence herbicidal action against POLCO; conditions: dosage 320 g/ha
How it was run: as §1

[3] = tested on: Verconica persica (VERPE); assay: Post-emergence herbicidal action against VERPE
How it was run: (§2)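 Values are percent visual activity (0% like control, 100% plants dead) after about 3 weeks in the greenhouse. Treatment: post-emergence spray at one-leaf stage, 600 l/ha spray volume, 0.5% additive, doses 320 g/ha or lower.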

[4] = tested on: Pharbitis purpurea (PHBPU); assay: Post-emergence herbicidal action against PHBPU
How it was run: as §2

Setaria viridis (SETVI) [5] = assay: Post-emergence herbicidal action against SETVI; conditions: dosage 320 g/ha
How it was run: as §2

[6] = tested on: Triticum aestivum (TRZAS); conditions: pre-emergence, crop plant compatibility, in comparison to untreated controls
How it was run: (§3)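 Crop injury rated visually in percent against untreated plants roughly 3 weeks after treatment (0% no effect, 100% plants dead). Compounds, as WP or EC with 0.5% additive in 600 l/ha water, were applied to the covering soil right after sowing; greenhouse growth. Suffixes a, b, c denote different dosages.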

Viola tricolor (VIOTR) [7] = assay: Pre-emergence herbicidal action against VIOTR
How it was run: as §1

[8] = tested on: Verconica persica (VERPE); assay: Pre-emergence herbicidal action against VERPE; conditions: dosage 320 g/ha
How it was run: as §1

[9] = tested on: Pharbitis purpurea (PHBPU); assay: Pre-emergence herbicidal action against PHBPU
How it was run: as §1

[10] = tested on: Triticum aestivum (TRZAS); conditions: crop plant compatibility, effect vs untreated controls
How it was run: (§4)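 Foliar application at the one-leaf stage: WP/EC formulation, 0.5% additive, 600 l/ha water. Greenhouse-grown in sandy loam. Endpoint is visual % injury relative to untreated controls at about 3 weeks.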

Oryza sativa (ORYSA) = conditions: crop plant compatibility, effect in comparison to untreated controls
How it was run: as §4

[11] = tested on: Amaranthus retroflexus (AMARE); assay: Pre-emergence herbicidal action against AMARE; conditions: visual scoring after about 3 weeks vs untreated controls
How it was run: as §1

[12] = tested on: Echinochloa crus-galli (ECHCG); assay: Pre-emergence herbicidal action against ECHCG; conditions: dosage 320 g/ha
How it was run: as §1

[13] = tested on: Matricaria inodora (MATIN); assay: Post-emergence herbicidal action against MATIN; conditions: dosage 320 g/ha
How it was run: as §2

Lolium rigidum (LOLRI) [14] = assay: Pre-emergence herbicidal action against LOLRI; conditions: dosage 320 g/ha
How it was run: as §1

Lolium rigidum (LOLRI) [15] = assay: Post-emergence herbicidal action against LOLRI; conditions: dosage 320 g/ha
How it was run: as §2

Setaria viridis (SETVI) [16] = assay: Pre-emergence herbicidal action against SETVI
How it was run: as §1

[17] = tested on: Echinochloa crus-galli (ECHCG); assay: Post-emergence herbicidal action against ECHCG; conditions: dosage 320 g/ha
How it was run: as §2

[18] = tested on: Alopecurus myosuroides (ALOMY); assay: Pre-emergence herbicidal action against ALOMY; conditions: 320 g/ha; scored visually after about 3 weeks; 100% = plants have died
How it was run: as §1

[19] = tested on: Amaranthus retroflexus (AMARE); assay: Post-emergence herbicidal action against AMARE; conditions: 320 g/ha, visual rating about 3 weeks after treatment
How it was run: as §2

[20] = tested on: Polygonum convolvulus (POLCO); assay: Post-emergence herbicidal action against POLCO
How it was run: as §2

Zea mays (ZEAMX) [21] = conditions: pre-emergence, crop plant compatibility, in comparison to untreated controls
How it was run: as §3

[22] = tested on: Alopecurus myosuroides (ALOMY); assay: Post-emergence herbicidal action against ALOMY; conditions: 320 g/ha, visual rating about 3 weeks after treatment vs untreated controls (100% = plants have died, 0% = like control plants)
How it was run: as §2

[23] = tested on: Abutilon theophrasti (ABUTH); assay: Post-emergence herbicidal action against ABUTH; conditions: 320 g/ha, visual rating about 3 weeks after treatment vs untreated controls (100% = plants have died, 0% = like control plants)
How it was run: as §2

Avena fatua (AVEFA) = assay: Post-emergence herbicidal action against AVEFA; conditions: 320 g/ha, visual rating about 3 weeks after treatment
How it was run: as §2

Viola tricolor (VIOTR) [24] = assay: Post-emergence herbicidal action against VIOTR
How it was run: as §2

[25] = tested on: Digitaria sanguinalis (DIGSA); assay: Pre-emergence herbicidal action against DIGSA; conditions: dosage 320 g/ha
How it was run: as §1

Zea mays (ZEAMX) [26] = conditions: crop plant compatibility, effect vs untreated controls
How it was run: as §4

Row | SMILES | Pre-emergence action against MATIN in % [1] | Pre-emergence action against POLCO in % [2] | Post-emergence action against VERPE in % ([3]; 320 g/ha, VERPE) | Post-emergence action against VERPE in % ([3]; dosage 80 g/ha) | Post-emergence action against PHBPU in % ([4]; dosage 320 g/ha) | Post-emergence action against SETVI in % (Setaria viridis (SETVI) [5]) | Pre-emergence action against TRZAS in % ([6]; 80 g/ha) | Pre-emergence action against VIOTR in % (Viola tricolor (VIOTR) [7]; 320 g/ha, Viola tricolor) | Pre-emergence action against PHBPU in % ([9]; dosage 320 g/ha) | Post-emergence action against TRZAS in % ([10]; 80 g/ha) | Post-emergence action against ORYSA in % (Oryza sativa (ORYSA); 80 g/ha) | Pre-emergence action against AMARE in % ([11]; 320 g/ha) | Pre-emergence action against ECHCG in % [12] | Post-emergence action against MATIN in % [13] | Pre-emergence action against LOLRI in % (Lolium rigidum (LOLRI) [14]) | Post-emergence action against LOLRI in % (Lolium rigidum (LOLRI) [15]) | Post-emergence action against PHBPU in % ([4]; dosage 80 g/ha) | Pre-emergence action against SETVI in % (Setaria viridis (SETVI) [16]; dosage 320 g/ha) | Post-emergence action against ECHCG in % [17] | Post-emergence action against AMARE in % [19] | other results
1 | COC(=O)CCOC(=O)COc1nn(-c2ncccc2C(F)(F)F)c(-c2cncc(F)c2)c1Br [Example I-160] | 80% | 90% | 90% | 80% | 90% | 80% | 20% | 100% | 90% | 20% | 0% | 80% | 90% | – | – | – | – | – | – | – | Pre-emergence action against VIOTR in % (Viola tricolor (VIOTR) [7]; dosage 80 g/ha): 90%; Pre-emergence action against VERPE in % [8]: 90%; Pre-emergence action against PHBPU in % ([9]; dosage 80 g/ha): 80%
2 | COC(=O)CCOC(=O)COc1nn(-c2cccc(C)n2)c(-c2ccc(F)nc2)c1Cl [Example I-276] | 80% | 80% | 90% | 80% | 90% | 90% | 0% | – | 80% | 0% | 10% | 90% | 90% | 80% | 100% | 80% | 80% | 90% | 80% | 90% | Pre-emergence action against TRZAS in % ([6]; 320 g/ha): 0%; Pre-emergence action against ALOMY [18]: 80%; Post-emergence action against TRZAS in % ([10]; 320 g/ha): 20%
3 | CCOC(=O)COc1nn(-c2ccccn2)c(-c2ccc(F)nc2)c1[N+](=O)[O-] [Example I-359] | 90% | 80% | – | – | 80% | – | 0% | 100% | – | – | 0% | 90% | 80% | – | 80% | 80% | – | 100% | 80% | 90% | Post-emergence action against POLCO in % ([20]; dosage 320 g/ha): 80%; Pre-emergence action against SETVI in % (Setaria viridis (SETVI) [16]; dosage 80 g/ha): 90%; Pre-emergence action against ZEAMX in % (Zea mays (ZEAMX) [21]; 80 g/ha): 10%; Post-emergence action against ALOMY in % [22]: 90%; Post-emergence action against ABUTH in % [23]: 80%; Post-emergence action against ORYSA in % (Oryza sativa (ORYSA); 320 g/ha): 0%; Post-emergence action against AVEFA in % (Avena fatua (AVEFA)): 90%
4 | CCOC(=O)COc1nn(-c2ccccn2)c(-c2ccc(Cl)nc2)c1Br [Example I-239] | – | – | 80% | 80% | 90% | – | 20% | – | – | – | 0% | 90% | – | 80% | – | – | 80% | – | – | 80% | Post-emergence action against POLCO in % ([20]; dosage 80 g/ha): 80%; Post-emergence action against POLCO in % ([20]; dosage 320 g/ha): 80%; Post-emergence action against VIOTR in % (Viola tricolor (VIOTR) [24]; 80 g/ha): 80%; Post-emergence action against VIOTR in % (Viola tricolor (VIOTR) [24]; 320 g/ha): 80%; Pre-emergence action against DIGSA in % [25]: 90%; Pre-emergence action against ZEAMX in % (Zea mays (ZEAMX) [21]; 80 g/ha): 0%; Pre-emergence action against ZEAMX in % (Zea mays (ZEAMX) [21]; 320 g/ha): 20%; Post-emergence action against ZEAMX in % (Zea mays (ZEAMX) [26]; 80 g/ha): 0%; Post-emergence action against ZEAMX in % (Zea mays (ZEAMX) [26]; 320 g/ha): 20%; Pre-emergence action against AMARE in % ([11]; 80 g/ha): 80%
